Structures can show the parent of a compound that is named as a salt.

Experiment [1] is described as follows: In vivo effects of P4N on antibody production and B cell differentiation (EGFP immunization). Also noted: species or system BALB/c mice. As to the method: In vivo effects of P4N on antibody production and B cell differentiation. Mice were immunized and boosted with 100 μg EGFP in 100 μl of PBS by intraperitoneal injection once every week and simultaneously treated with or without 5 mg/kg P4N once or three times per week. Blood samples were collected from the retro-orbital plexus of the mice every week. The titers of anti-EGFP antibodies in sera were measured by enzyme-linked immunosorbent assay (ELISA). Briefly, each well of a microtiter plate (Nunc, Wiesbaden, Germany) was coated with 100 ng of rEGFP in 100 μl of PBS. The sera were 6400× diluted by PBS and added to the antigen-coated wells, and their titers were measured as described above. The isotypes of anti-EGFP antibodies in sera were also measured as described previously.
The splenocytes of P4N-treated or untreated mice were harvested and probed with anti-CD19-FITC, anti-CD23-APC, anti-CD38-APC, anti-CD27-APC, anti-CD138-APC, anti-CD5-PE or anti-CD1d-Alexa 647 (BioLegend) antibodies and analyzed by flow cytometry (BD Biosciences). The definitions of the cell types were as described above, except for memory B cells (CD19+CD27+) and plasma cells (CD19+CD138+). The indices of different types of B cell proliferation were calculated as follows: (the number of splenocytes×the percentage of each B cell population in treated splenocytes)/(the number of splenocytes×the percentage of each B cell population in untreated splenocytes).

In experiment [2] the test system is Human B or T cells. Briefly: Proliferation of isolated human B or T cells, MTT assay. It counts as cell-based. On the procedure:
FIG. 10 depicts the effects of P4N on cell proliferation. Human B or T cells were isolated from the PBMCs by negative selection using a magnetic sorting device (Miltenyi Biotec, Auburn, Calif.). Cell proliferation was determined by an MTT assay.
Total B-cells were isolated from human PBMCs or mouse splenocytes by negative selection using a magnetic sorting device (Miltenyi Biotec, Auburn, Calif.). Briefly, PBMCs were incubated with a cocktail of biotin-conjugated antibodies, followed by microbead-conjugated anti-biotin Abs for magnetic depletion. B-cells were eluted according to the manufacturer's protocols. Human blood samples were collected from healthy individuals following an IRB-approved protocol and in agreement with the Committee for Research Ethics Board of Chung Shan Medical University Hospital.
(In general: Tetrazolium dyes change colour on reduction, which living cells bring about.)

In experiment [3] the test system is THP-1 cells. Briefly: Gene expression profiling of P4N treated THP-1 cells, cDNA microarray. It counts as cell-based. To be noted: THP-1 cells following P4N treatment. On the procedure:
Gene expression profiling and analysis. Amplification and labeling of RNA was performed with the Illumina®TotalPrep RNA Amplification Kit from Life Technologies (Ambion, Applied Biosystems, Foster City, Calif.) using 150 ng of RNA per sample. Labeled RNA (750 ng) was hybridized to Illumina HT-12 v4 Expression BeadChips (˜48,000 probes) and processed according to the manufacturer's protocol. Expression data underwent quality control and normalization by GenomeStudio (Illumina, San Diego, Calif.). Genes differentially expressed in the cells treated with P4N relative to the untreated cells were identified, with special emphasis given to genes involved in cytokine-cytokine receptor interaction (KEGG pathway). […] The identified genes were subjected to the Database for Annotation, Visualization and Integrated Discovery (DAVID) (david.abcc.ncifcrf.gov/) for Gene Ontology (GO) and KEGG pathway enrichment analysis. A P-value <0.05 was set as threshold of enrichment analysis.

For experiment [4], the system named is human PBMCs. The experiment can be described thus: Activin A and BAFF expression in human PBMCs. It counts as cell-based. To be noted: low dose P4N (3 μM). On the procedure:
FIGS. 5A-5F depict the expression of Activin A/BAFF induced by P4N treatments. (A) P4N induced Activin A or BAFF expression in human PBMCs as determined by RT-PCR. S1-S5 display different individual blood samples collected from 5 different human donors; N, no treatment; P, P4N-treatment (3 μM). The change in Activin A and BAFF expression (mean of 5 patients) relative to the control (NC) is plotted as a histogram (B) The effect of increasing dosages of P4N for 12 h on mRNA and protein levels of Activin A or BAFF in THP-1 cells was analyzed by RT-PCR and ELISA. (C) The effect of 6 μM P4N on mRNA and protein levels of Activin A or BAFF in THP-1 cells was determined at a different time period. (D) The effect of different inhibitors on Activin A-induced BAFF expression was examined. The expression of BAFF mRNA in inhibitor-treated THP-1 cells was determined by RT-PCR, and (E) BAFF protein secretion was measured by ELISA. (F) The effect of THP-1 conditioned media on the proliferation of Raji cells and OKT3 hybridoma cells were determined. […] The results are expressed as % viable cells relative to the control (NC, media from untreated THP-1 cells). […]
Reverse transcription PCR. Human PBMCs or THP-1 cells were treated with P4N, and then the mRNA expression of INHBA and BAFF in these cells was measured by reverse transcription PCR. […]

The subject of experiment [5] is mouse splenocytes. The experiment can be described thus: Activin A and BAFF expression in mouse splenocytes. It counts as cell-based. To be noted: low dose P4N. On the procedure: FIGS. 14A-14C depict P4N-induced mouse B cell proliferation via the Activin A/BAFF pathway. (A) The proliferation of P4N-treated splenocytes. Splenocytes isolated from three mice were individually treated with increasing concentrations of P4N for 48 h and their proliferation was analyzed by MTT assay. The data are reported as the proliferation index. […] (B) The proliferation of B cells in mouse splenocytes treated with low doses of P4N. After treatment with P4N for 48 h, B-cells were identified by CD19 surface marker staining and the cell number was calculated following a flow cytometer analysis. […] Levels of Activin A and BAFF transcripts were measured by RT-PCR. Each sample obtained from 3 different mice; N, no treatment; P, P4N-treatment.
Reverse transcription PCR. Human PBMCs or THP-1 cells were treated with P4N, and then the mRNA expression of INHBA and BAFF in these cells was measured by reverse transcription PCR. Briefly, total cellular RNA was extracted with Trizol reagent (Invitrogen) and reverse-transcribed into cDNA using the Superscript RT-kit (Invitrogen). The cDNA of INHBA and BAFF were then amplified by PCR. GAPDH cDNA in the samples was used to normalize the loading amounts in each reaction. Finally, PCR products were resolved by electrophoresis on 2% agarose gels and visualized with ethidium bromide.

The subject of experiment [6] is THP-1 cells. The experiment can be described thus: Activin A and BAFF mRNA and protein in THP-1 cells, RT-PCR and ELISA. It counts as cell-based. As to the method:
FIGS. 5A-5F depict the expression of Activin A/BAFF induced by P4N treatments. (A) P4N induced Activin A or BAFF expression in human PBMCs as determined by RT-PCR. S1-S5 display different individual blood samples collected from 5 different human donors; N, no treatment; P, P4N-treatment (3 μM). The change in Activin A and BAFF expression (mean of 5 patients) relative to the control (NC) is plotted as a histogram (B) The effect of increasing dosages of P4N for 12 h on mRNA and protein levels of Activin A or BAFF in THP-1 cells was analyzed by RT-PCR and ELISA. (C) The effect of 6 μM P4N on mRNA and protein levels of Activin A or BAFF in THP-1 cells was determined at a different time period. (D) The effect of different inhibitors on Activin A-induced BAFF expression was examined. The expression of BAFF mRNA in inhibitor-treated THP-1 cells was determined by RT-PCR, and (E) BAFF protein secretion was measured by ELISA. (F) The effect of THP-1 conditioned media on the proliferation of Raji cells and OKT3 hybridoma cells were determined. Media were harvested, in which THP-1 cells were pre-treated without inhibitor (2) or with SB431542 (3), A83-01 (4), SIS3 (5), SB203580 (6) or PD98059 (7) and then treated with P4N for 12 h. The results are expressed as % viable cells relative to the control (NC, media from untreated THP-1 cells). All values are the means of triplicate samples±SEM. The significant differences in the results of inhibitor and P4N-treated groups compared with the untreated group are indicated by ***P<0.001.
Reverse transcription PCR. Human PBMCs or THP-1 cells were treated with P4N, and then the mRNA expression of INHBA and BAFF in these cells was measured by reverse transcription PCR. Briefly, total cellular RNA was extracted with Trizol reagent (Invitrogen) and reverse-transcribed into cDNA using the Superscript RT-kit (Invitrogen). The cDNA of INHBA and BAFF were then amplified by PCR. GAPDH cDNA in the samples was used to normalize the loading amounts in each reaction. […]
For orientation: ELISA stands for enzyme-linked immunosorbent assay.

`C[C@H](Cc1ccc(OCCN2CCCCC2)c(OCCN2CCCCC2)c1)[C@@H](C)Cc1ccc(OCCN2CCCCC2)c(OCCN2CCCCC2)c1` [P4N, meso-2,3-dimethyl-1,4-bis(3,4-[2-(piperidino)ethoxyphenyl])butane tetrakishydrochloride salt]: the “total specific anti-EGFP Ig production” value in experiment [1] (5 mg/kg P4N once or three times a week with EGFP) is “dramatically enhanced”. In experiment [1] (compared to EGFP immunization), the “B cell differentiation to plasma cells” value is “greatly stimulated”. In addition, the “IgG1, IgG2b and IgA production” value in experiment [1] (immunization with P4N) is reported as “significantly increased”. For the same compound, in experiment [2], the “proliferation of T-cell-depleted PBMCs” value was “increased the proliferation” and the “proliferation of isolated T cells or B cells” value is listed as “did not induce the proliferation”. In addition, in experiment [3], the “up-regulated genes of cytokine-cytokine interaction (KEGG pathway)” value is 26 and the “up-regulated genes of growth factor activity (GO: 0008083)” value is reported as 10. For the same compound, in experiment [4], the “gene expression and protein production of Activin A and BAFF” value is “increase their gene expression and protein production”. For the same compound, the “gene expression and protein production of Activin A and BAFF” value in experiment [5] was “increase their gene expression and protein production”. Also, in experiment [6] (THP-1, 6 μM P4N), the “time of elevated BAFF expression” value stood at 8 h and the “time of up-regulated mRNA expression of Activin A” value worked out at 2 h. Moreover, the “dose dependence of Activin A and BAFF mRNA and protein levels” value in experiment [6] (THP-1, increasing dosages of P4N, 12 h) is listed as “dose-dependent manner”.

The values are drawn from patent US20190111040A1, “IN VIVO AMELIORATION OF ENDOGENOUS ANTI-TUMOR AUTOANTIBODIES TARGETING SURFACE TUMOR ANTIGENS VIA LOW-DOSE P4N” (THE JOHNS HOPKINS UNIVERSITY, priority 2016, published 2019).
